Calls of active or inactive are those of the source. Unless noted, the rule behind the calls is not given here.

A word on the AC50: it is the concentration giving half of the maximal activity seen. Usually IC50 stands for the concentration that gives 50% inhibition.

The target of assay [1] is Trypsin (Sus scrofa, UniProt P00761). In words: porcine trypsin inhibitors, dose response, selectivity assay for Rce1 protease inhibitor project, biochemical, quenched peptide fluorescence, cherry-pick (AID 488789).
Sequence of Trypsin (P00761 whole entry): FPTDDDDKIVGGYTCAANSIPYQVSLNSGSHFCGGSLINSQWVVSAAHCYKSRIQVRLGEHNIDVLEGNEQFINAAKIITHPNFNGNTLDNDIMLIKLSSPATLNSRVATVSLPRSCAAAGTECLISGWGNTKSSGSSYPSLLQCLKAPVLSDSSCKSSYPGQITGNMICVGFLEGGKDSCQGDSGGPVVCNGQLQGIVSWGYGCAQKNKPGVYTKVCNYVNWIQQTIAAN
In assay [2] the target is Protein Rev (Human immunodeficiency virus type 1 group M subtype B (isolate HXB2)(HIV-1), UniProt P04618). In words: inhibitors of Rev binding to RRE RNA, dose response, biochemical, fluorescence polarization, HIV-1 (AID 434976). The arrangement: species or system Human immunodeficiency virus 1. Background: Fluorescence polarisation rises when a labelled molecule tumbles more slowly, as on binding a larger partner.
Sequence of Protein Rev (P04618 whole entry): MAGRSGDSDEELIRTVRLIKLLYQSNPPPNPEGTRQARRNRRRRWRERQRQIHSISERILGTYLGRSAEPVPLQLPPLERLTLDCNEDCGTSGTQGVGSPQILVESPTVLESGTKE

The target in assay [3] is Female germline-specific tumor suppressor gld-1 (Caenorhabditis elegans, UniProt Q17339). In words: inhibitors of GLD-1 binding to TGE RNA, dose response, biochemical, fluorescence polarization, C. elegans (AID 2802).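 Also: fluorescence polarization of labeled TGE RNA bound by purified gld-1 protein.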
Sequence of Female germline-specific tumor suppressor gld-1 (Q17339 whole entry): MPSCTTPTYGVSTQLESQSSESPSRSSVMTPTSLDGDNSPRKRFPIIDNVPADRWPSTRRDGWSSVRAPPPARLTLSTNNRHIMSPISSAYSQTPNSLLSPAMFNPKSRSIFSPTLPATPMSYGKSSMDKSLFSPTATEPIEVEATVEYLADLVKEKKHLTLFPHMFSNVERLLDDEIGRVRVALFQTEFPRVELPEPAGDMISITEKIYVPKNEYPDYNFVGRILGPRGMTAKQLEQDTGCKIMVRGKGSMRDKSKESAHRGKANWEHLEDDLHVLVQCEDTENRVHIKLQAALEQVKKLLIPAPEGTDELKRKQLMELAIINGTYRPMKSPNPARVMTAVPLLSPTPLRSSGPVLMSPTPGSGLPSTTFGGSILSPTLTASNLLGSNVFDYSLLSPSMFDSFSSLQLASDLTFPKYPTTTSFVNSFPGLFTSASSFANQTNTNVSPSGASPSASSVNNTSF
The target of assay [4] is Intestinal-type alkaline phosphatase (Homo sapiens, UniProt P09923). In words: Dose Response confirmation of uHTS hits from a small molecule inhibitors of human intestinal alkaline phosphatase via a luminescent assay. [Related pubchem assays (depositor defined):AID2544, AID2574]. The class given is functional.
Sequence of Intestinal-type alkaline phosphatase (P09923 whole entry): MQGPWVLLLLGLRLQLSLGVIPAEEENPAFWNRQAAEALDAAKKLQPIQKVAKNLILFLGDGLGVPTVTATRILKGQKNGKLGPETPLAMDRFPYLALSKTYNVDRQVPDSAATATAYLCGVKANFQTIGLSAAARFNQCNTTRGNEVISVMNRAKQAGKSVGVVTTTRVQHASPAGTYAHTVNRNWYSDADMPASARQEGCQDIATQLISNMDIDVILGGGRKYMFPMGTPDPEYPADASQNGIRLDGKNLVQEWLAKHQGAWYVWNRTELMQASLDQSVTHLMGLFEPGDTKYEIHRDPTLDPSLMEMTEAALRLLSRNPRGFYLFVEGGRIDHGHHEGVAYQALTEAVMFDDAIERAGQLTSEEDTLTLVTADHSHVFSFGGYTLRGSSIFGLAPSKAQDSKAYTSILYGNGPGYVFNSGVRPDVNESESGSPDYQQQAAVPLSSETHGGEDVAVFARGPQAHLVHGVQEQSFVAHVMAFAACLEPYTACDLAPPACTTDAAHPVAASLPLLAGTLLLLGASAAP
Assay [5] addresses Genome polyprotein (dengue virus type 2, UniProt P29990). In words: Dengue-2 NS5 methyltransferase inhibitors, primary screen, biochemical, confirmation dose response (AID 588689). The class given is functional.
In assay [6] the target is T1, Corticotropin-releasing factor receptor 2/Corticotropin-releasing factor-binding protein (Homo sapiens, UniProt P24387+Q13324).
T1 sequence (Q13324 whole entry): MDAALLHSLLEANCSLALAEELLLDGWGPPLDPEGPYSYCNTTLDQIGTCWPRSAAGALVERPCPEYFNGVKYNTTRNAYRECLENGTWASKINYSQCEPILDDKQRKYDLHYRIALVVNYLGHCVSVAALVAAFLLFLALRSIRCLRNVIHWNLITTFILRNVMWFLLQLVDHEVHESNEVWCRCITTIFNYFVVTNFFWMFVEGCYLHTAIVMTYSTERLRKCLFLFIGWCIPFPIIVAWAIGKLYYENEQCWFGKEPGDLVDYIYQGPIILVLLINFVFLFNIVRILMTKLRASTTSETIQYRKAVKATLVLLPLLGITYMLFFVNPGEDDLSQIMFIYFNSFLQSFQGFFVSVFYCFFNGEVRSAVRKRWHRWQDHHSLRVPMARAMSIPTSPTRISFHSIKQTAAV
T1 sequence (P24387 whole entry): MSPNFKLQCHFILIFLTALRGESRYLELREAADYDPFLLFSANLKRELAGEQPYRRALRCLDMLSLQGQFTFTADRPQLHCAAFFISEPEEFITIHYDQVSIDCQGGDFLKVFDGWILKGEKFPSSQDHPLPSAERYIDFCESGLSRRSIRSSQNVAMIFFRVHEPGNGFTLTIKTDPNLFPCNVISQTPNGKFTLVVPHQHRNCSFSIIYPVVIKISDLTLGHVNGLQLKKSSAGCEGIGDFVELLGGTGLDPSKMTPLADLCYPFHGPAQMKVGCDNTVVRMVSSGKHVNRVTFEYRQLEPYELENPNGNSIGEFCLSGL
In words: activators of CRF receptor 2 with binding protein – uHTS hits, confirmation (AID 602473). The class given is functional. Particulars: read-out: EC50_Mean.

In assay [7] the test system is HEK293. In words: PMA/Ionomycin induced NF-kB luciferase assay in 293- NF-kB-Luc stable cells. [Related pubchem assays: 1299, 1270, 1295, 1375, 1287, 1281, 1293, 1291, 1289, 1280, 465, 1364, 1282, 1372, 1365, 1370, 1367, 1366, 1269, 1373, 1292, 1290, 1302, 1371, 1283, 1271, 1294, 1374, 1368, 1369 ]. The class given is functional, cell-based. Particulars: Homo sapiens.

For assay [8], the target named is Luciferin 4-monooxygenase (Photinus pyralis, UniProt P08659). In words: In vitro luciferase assay using purified luciferase. [Related pubchem assays: 1299, 1270, 1295, 1375, 1287, 1281, 1293, 1291, 1289, 1280, 465, 1364, 1282, 1372, 1365, 1370, 1367, 1366, 1266, 1373, 1292, 1290, 1302, 1371, 1283, 1271, 1294, 1374, 1368, 1369 ].
Sequence of Luciferin 4-monooxygenase (P08659 whole entry): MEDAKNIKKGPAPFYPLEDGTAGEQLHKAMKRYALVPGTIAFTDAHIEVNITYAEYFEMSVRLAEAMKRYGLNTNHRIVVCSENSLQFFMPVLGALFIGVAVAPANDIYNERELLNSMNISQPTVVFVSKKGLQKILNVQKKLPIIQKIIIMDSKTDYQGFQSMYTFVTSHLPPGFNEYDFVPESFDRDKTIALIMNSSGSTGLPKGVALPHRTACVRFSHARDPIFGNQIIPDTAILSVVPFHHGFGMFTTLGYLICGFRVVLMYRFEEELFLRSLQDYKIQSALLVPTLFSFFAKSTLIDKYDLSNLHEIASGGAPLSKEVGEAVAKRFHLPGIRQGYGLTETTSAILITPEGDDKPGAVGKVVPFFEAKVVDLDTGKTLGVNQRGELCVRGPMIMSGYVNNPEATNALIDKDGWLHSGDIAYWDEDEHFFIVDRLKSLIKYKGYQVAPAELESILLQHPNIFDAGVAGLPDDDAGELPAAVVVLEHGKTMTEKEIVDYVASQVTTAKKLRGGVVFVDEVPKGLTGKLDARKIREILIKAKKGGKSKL
The test system of assay [9] is HEK293. In words: Cytotoxicity assay in HEK293 cells. [Related pubchem assays (depositor defined):AID1266, AID1269, AID1270, AID1271, AID1280, AID1281, AID1282, AID1283, AID1287, AID1289, AID1290, AID1291, AID1292, AID1293, AID1294, AID1295, AID1299, AID1302, AID1364, AID1365, AID1366, AID1367, AID1369, AID1370, AID1371, AID1372, AID1373, AID1374, AID1375, AID1384 …. The format is functional, cell-based. Particulars: Homo sapiens.

Assay [10] concerns HEK293. In words: TNF Induced NF-kB Luciferase in 293-NF-kB-Luc Stable Cells. [Related pubchem assays: 1266, 1299, 1269, 1373, 1292, 1290, 1302, 1371, 1283, 1270, 1295, 1271, 1375, 1294, 1374, 1281, 1293, 1291, 1289, 1280, 465, 1368, 1364, 1282, 1372, 1365, 1369, 1370, 1367, 1366 ]. The class given is functional, cell-based. Particulars: Homo sapiens.
The test system of assay [11] is HEK293. In words: inhibitors of LMP1-driven NF-kB reporter, dose response, cell-based, HEK293, luciferase, cherry-pick (AID 588343). The format is functional. Particulars: Homo sapiens.
The target of assay [12] is T2, Replicative DNA helicase DnaB (Mycobacterium tuberculosis, UniProt P9WMR3).
T2 sequence (P9WMR3 whole entry): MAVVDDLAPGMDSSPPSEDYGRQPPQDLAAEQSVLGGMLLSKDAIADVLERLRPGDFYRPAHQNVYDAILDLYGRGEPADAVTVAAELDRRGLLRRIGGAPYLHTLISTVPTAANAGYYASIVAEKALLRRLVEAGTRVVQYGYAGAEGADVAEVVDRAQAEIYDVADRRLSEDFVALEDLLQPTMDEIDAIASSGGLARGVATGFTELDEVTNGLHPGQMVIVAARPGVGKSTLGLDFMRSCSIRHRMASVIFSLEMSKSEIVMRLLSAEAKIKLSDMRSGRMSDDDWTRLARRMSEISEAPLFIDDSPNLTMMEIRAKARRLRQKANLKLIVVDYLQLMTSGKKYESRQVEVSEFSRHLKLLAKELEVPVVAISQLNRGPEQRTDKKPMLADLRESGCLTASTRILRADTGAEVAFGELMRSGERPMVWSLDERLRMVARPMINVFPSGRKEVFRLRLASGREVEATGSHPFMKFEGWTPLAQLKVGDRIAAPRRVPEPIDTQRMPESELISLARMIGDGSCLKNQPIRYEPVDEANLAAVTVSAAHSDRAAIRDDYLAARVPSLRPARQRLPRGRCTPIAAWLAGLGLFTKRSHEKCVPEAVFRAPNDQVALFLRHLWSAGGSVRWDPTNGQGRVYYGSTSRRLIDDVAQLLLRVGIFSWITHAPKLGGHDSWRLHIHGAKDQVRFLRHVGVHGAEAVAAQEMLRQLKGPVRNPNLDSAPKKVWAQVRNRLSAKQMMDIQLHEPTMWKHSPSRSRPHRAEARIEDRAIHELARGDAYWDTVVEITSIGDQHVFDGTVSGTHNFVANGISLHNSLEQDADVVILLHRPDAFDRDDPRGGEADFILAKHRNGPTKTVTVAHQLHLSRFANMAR
In words: DnaB intein splicing inhibitors, dose response, biochemical, cell-free fluorescence (AID 449749). The class given is functional.

Assay [13] addresses T3, Protein RecA (Mycobacterium tuberculosis, UniProt P9WHJ3).
T3 sequence (P9WHJ3 whole entry): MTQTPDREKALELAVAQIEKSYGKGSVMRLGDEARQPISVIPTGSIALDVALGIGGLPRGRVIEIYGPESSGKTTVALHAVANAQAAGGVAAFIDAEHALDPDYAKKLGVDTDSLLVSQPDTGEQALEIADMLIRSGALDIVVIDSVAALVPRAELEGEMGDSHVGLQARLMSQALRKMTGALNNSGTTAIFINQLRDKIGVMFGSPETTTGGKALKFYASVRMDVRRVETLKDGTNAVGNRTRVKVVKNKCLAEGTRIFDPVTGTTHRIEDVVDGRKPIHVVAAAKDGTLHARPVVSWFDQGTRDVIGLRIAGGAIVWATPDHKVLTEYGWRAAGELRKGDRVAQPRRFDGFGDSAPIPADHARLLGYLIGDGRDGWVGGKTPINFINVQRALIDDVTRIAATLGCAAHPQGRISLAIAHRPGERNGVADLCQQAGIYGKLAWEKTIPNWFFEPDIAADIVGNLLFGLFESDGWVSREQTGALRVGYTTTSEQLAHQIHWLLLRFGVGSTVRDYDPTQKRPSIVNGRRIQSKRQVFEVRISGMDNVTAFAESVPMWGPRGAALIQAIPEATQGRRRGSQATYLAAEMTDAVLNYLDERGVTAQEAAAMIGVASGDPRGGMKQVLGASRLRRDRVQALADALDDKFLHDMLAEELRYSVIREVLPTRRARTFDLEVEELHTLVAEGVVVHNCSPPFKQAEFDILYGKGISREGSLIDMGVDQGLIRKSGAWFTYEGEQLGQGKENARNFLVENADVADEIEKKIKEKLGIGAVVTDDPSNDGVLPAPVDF
In words: Fluorescence Cell-Free Homogeneous Dose Retest to Identify Inhibitors of RecA-Intein Splicing Activity. [Related pubchem assays (depositor defined):AID2097, AID2223, AID489010, AID492950]. The format is functional.

Assay [14] has as its target Protein phosphatase methylesterase 1 (Homo sapiens, UniProt Q9Y570). In words: PME-1 inhibitor potency by in-gel ABPP, dose response, selectivity assay for PME-1 inhibitor project, cell lysate, mouse brain cytosol, FP-rhodamine, panel member PME-1 Assay Panel member description: Inhibition of endogenously expressed PME-1 (AID 2366).
Assay [15] deals with MDA-MB-435. In words: cells. Particulars: Homo sapiens. The format is functional, cell-based.
The nature of assay [16]: cells. The format is functional, cell-based. Particulars: PPC-1.

Sequence of Genome polyprotein (P29990 2492-3391 limits assumed): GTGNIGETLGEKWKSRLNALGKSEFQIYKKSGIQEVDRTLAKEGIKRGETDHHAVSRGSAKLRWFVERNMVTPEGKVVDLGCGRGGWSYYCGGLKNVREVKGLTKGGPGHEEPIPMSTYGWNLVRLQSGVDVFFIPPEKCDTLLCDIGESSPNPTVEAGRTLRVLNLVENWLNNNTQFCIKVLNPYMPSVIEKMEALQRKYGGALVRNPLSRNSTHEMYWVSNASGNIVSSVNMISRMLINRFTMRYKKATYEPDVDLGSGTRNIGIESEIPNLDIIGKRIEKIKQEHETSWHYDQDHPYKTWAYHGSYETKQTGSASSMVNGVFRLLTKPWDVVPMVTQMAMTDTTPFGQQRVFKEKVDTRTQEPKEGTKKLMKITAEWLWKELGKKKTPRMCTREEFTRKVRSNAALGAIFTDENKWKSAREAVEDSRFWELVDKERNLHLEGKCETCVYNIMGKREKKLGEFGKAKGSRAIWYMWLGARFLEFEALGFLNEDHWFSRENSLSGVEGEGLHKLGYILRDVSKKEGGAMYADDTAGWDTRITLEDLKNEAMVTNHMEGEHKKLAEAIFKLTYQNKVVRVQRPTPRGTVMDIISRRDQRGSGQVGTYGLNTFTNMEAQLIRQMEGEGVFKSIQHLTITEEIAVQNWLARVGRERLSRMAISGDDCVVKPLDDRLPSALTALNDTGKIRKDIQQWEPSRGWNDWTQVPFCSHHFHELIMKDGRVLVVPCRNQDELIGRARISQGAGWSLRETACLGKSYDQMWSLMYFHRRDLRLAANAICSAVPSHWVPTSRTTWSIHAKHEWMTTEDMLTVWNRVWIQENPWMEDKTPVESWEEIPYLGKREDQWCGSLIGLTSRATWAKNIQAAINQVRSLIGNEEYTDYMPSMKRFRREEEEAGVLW
Sequence of Protein phosphatase methylesterase 1 (Q9Y570 whole entry): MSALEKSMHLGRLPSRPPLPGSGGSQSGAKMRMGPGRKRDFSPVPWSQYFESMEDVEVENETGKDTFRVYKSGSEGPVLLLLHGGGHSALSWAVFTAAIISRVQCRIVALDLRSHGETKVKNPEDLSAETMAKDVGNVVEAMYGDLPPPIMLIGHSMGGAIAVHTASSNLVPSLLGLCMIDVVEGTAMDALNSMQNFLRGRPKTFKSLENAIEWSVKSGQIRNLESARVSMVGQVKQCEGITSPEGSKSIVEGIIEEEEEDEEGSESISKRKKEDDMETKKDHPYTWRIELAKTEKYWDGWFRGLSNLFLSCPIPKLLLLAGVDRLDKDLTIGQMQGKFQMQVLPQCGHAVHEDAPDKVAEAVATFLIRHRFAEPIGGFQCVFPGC

Turning to `CSC[C@H](NC(=O)COc1cc2c(c3oc(=O)cc(C)c13)CCC(C)(C)O2)C(=O)O`, the half-maximal activity concentration (AC50) in assay [1] was 12 µM (active).

Regarding `COc1ccc2nc(N3CCC(O)CC3)c(C#N)cc2c1`, the IC50 in assay [2] was 67.6 µM (not active); in [3], 24.9 µM (inactive); in [4], > 100 µM (inactive); in [5], 59.2 µM (active). The EC50 in [6] was > 53 µM (inactive).

On to `Cc1n[nH]c2c1C(c1c(C)nn(-c3ccccc3)c1Cl)C(C#N)=C(N)O2` (stereo unspecified), for which the EC50 in assay [7] was 1 µM (active); in assay [8], > 8 µM (not active); in assay [9], > 8 µM (inactive); in assay [10], 1.68 µM (active); in assay [13] it was 13.5 µM (active). The results for the AC50 in assay [11] and in assay [12] were 7.01 µM (active) and 14 µM (active), respectively.

For the compound `Cc1noc(C)c1S(=O)(=O)n1cccc1/C=C(\C#N)S(C)(=O)=O`, in assay [14], the IC50 was > 20 µM (inactive).

As to `CCSc1cc(N2CCCC2)nc(-c2ccc(Cl)cc2)n1`, the IC50 in assay [15] and in assay [16] was > 10 µM (inactive) throughout.

Source of the values: ChEMBL document CHEMBL1201862, “PubChem BioAssay data set” (2004).
